pIC50: −log10 of the molar value.

In one test the test system is HSP72 in SK-OV-3 cells. The test can be described thus: Cell-based ELISA (Cellisa) assay, SK-OV-3 cells: inhibition of 17-AAG-induced HSP72. The note with it: Homo sapiens; SK-OV-3 cells (Examples 169-218). As for the experimental part: U2OS cells (5-8×10^4 cells/mL) or SK-OV-3 cells (5-8×10^4 cells/mL) were seeded into 96-well plates and incubated at 37° C. for 48 h. Compounds were then added at a range of concentrations and incubated for 1 h before addition of 17-AAG (250 nM). Cells were then incubated for 18 h. The medium was removed washed 2× with PBS and cells were then fixed with fixing solution (4% paraformaldehyde, 0.3% TritonX-100 in PBS) for 30 min at 4° C. The plates were then washed 2× with PBS before blocking with 5% milk for 30 min at 37° C. After washing the plates 4× with 0.1% Tween-20/deionised water, HSP72 antibody (SPA-810, Enzo Life) was added for 1.5 h at 37° C. Following 4× washes, the plates were incubated with europium-labelled anti-mouse antibody (0.6 ug/ml) in Delfia assay buffer (Perkin Elmer) for 1 h at 37° C. After washing the plates, Delfia enhancement solution was added, shaken for 10 min before reading in the Envision plate reader (Perkin-Elmer) with excitation at 340 nm and emission at 615 nm. The plates were washed again before protein determination using the bicinchoninic acid assay (BCA assay, Pierce Biotechnology). The europium counts were normalised for the amount of protein in each well. The 50% inhibitory concentration value of the compound was then calculated.
A general note: ELISA stands for enzyme-linked immunosorbent assay.
For orientation: pIC50 means the IC50 on a negative log10 scale, so that one unit is a factor of ten. High values mean a small IC50, low ones a large IC50. In turn, `CC1CCCN1Cc1ccc2cc(C(=O)Nc3cc(NC(=O)c4ccc5c(c4)OCCO5)ccc3F)ccc2n1` (racemic) [Example 190, (rac)-N-(5-(2,3-dihydrobenzo[b][1,4]dioxine-6-carboxamido)-2-fluorophenyl)-2-((2-methylpyrrolidin-1-yl)methyl)quinoline-6-carboxamide] showed a negative logarithm of the IC50 (pIC50) of 6.57.
Same read-out and setting: for `CCN1CCN(Cc2ccc3cc(C(=O)Nc4cc(NC(=O)c5ccc6c(c5)OCCO6)ccc4F)ccc3n2)CC1` [Example 169, N-(5-(2,3-dihydrobenzo[b][1,4]dioxine-6-carboxamido)-2-fluorophenyl)-2-((4-ethylpiperazin-1-yl)methyl)quinoline-6-carboxamide] the value was 7.25; for `O=C(Nc1ccc(F)c(NC(=O)c2ccc3nc(CN4CCCC4)ccc3c2)c1)c1ccc2c(c1)OCCO2` [Example 170, N-(5-(2,3-dihydrobenzo[b][1,4]dioxine-6-carboxamido)-2-fluorophenyl)-2-(pyrrolidin-1-ylmethyl)quinoline-6-carboxamide], 6.42; for `O=C(Nc1ccc(F)c(NC(=O)c2ccc3nc(CN4CCC4)ccc3c2)c1)c1ccc2c(c1)OCCO2` [Example 171, 2-(azetidin-1-ylmethyl)-N-(5-(2,3-dihydrobenzo[b][1,4]dioxine-6-carboxamido)-2-fluorophenyl)quinoline-6-carboxamide], 6.35.
On the same count and under the same terms, the same measure for `O=C(Nc1ccc(F)c(NC(=O)c2ccc3nc(CN4CCCCC4)ccc3c2)c1)c1ccc2c(c1)OCCO2` [Example 172, N-(5-(2,3-dihydrobenzo[b][1,4]dioxine-6-carboxamido)-2-fluorophenyl)-2-(piperidin-1-ylmethyl)quinoline-6-carboxamide]: 6.17; for `CN1CCN(Cc2ccc3cc(C(=O)Nc4cc(NC(=O)c5ccc6c(c5)OCCO6)ccc4F)ccc3n2)CC1` [Example 173, N-(5-(2,3-dihydrobenzo[b][1,4]dioxine-6-carboxamido)-2-fluorophenyl)-2-((4-methylpiperazin-1-yl)methyl)quinoline-6-carboxamide]: 7.00.
Same read-out and setting: the same measure for `O=C(Nc1ccc(F)c(NC(=O)c2ccc3nc(CN4CCNCC4)ccc3c2)c1)c1ccc2c(c1)OCCO2` [Example 174, N-(5-(2,3-dihydrobenzo[b][1,4]dioxine-6-carboxamido)-2-fluorophenyl)-2-(piperazin-1-ylmethyl)quinoline-6-carboxamide]: 7.11; for `C[C@H]1CCCN1Cc1ccc2cc(C(=O)Nc3cc(NC(=O)c4ccc5c(c4)OCCO5)ccc3F)ccc2n1` [Example 175, (S)—N-(5-(2,3-dihydrobenzo[b][1,4]dioxine-6-carboxamido)-2-fluorophenyl)-2-((2-methylpyrrolidin-1-yl)methyl)quinoline-6-carboxamide]: 6.19; for `C[C@@H]1CCCN1Cc1ccc2cc(C(=O)Nc3cc(NC(=O)c4ccc5c(c4)OCCO5)ccc3F)ccc2n1` [Example 176, (R)—N-(5-(2,3-dihydrobenzo[b][1,4]dioxine-6-carboxamido)-2-fluorophenyl)-2-((2-methylpyrrolidin-1-yl)methyl)quinoline-6-carboxamide]: 6.50.
`O=C(Nc1ccc(F)c(NC(=O)c2ccc3nc(CN4CCN(C5CC5)CC4)ccc3c2)c1)c1ccc2c(c1)OCCO2` [Example 178, 2-((4-cyclopropylpiperazin-1-yl)methyl)-N-(5-(2,3-dihydrobenzo[b][1,4]dioxine-6-carboxamido)-2-fluorophenyl)quinoline-6-carboxamide] had a pIC50 of 7.36.
As to `CCN1C[C@@H]2C[C@H]1CN2Cc1ccc2cc(C(=O)Nc3cc(NC(=O)c4ccc5c(c4)OCCO5)ccc3F)ccc2n1` [Example 180, N-(5-(2,3-dihydrobenzo[b][1,4]dioxine-6-carboxamido)-2-fluorophenyl)-2-(((1S,4S)-5-ethyl-2,5-diazabicyclo[2.2.1]heptan-2-yl)methyl)quinoline-6-carboxamide], the pIC50 is 6.68.
With `O=C(Nc1ccc(F)c(NC(=O)c2ccc3nc(CN4CC5(CCC5)C4)ccc3c2)c1)c1ccc2c(c1)OCCO2` [Example 181, 2-(2-azaspiro[3.3]heptan-2-ylmethyl)-N-(5-(2,3-dihydrobenzo[b][1,4]dioxine-6-carboxamido)-2-fluorophenyl)quinoline-6-carboxamide], the pIC50 was 6.83. The pIC50 values of the last two molecules are within 0.2 log units of each other.
Same read-out and setting: the same measure for `CC1CN(Cc2ccc3cc(C(=O)Nc4cc(NC(=O)c5ccc6c(c5)OCCO6)ccc4F)ccc3n2)C1` [Example 182, N-(5-(2,3-dihydrobenzo[b][1,4]dioxine-6-carboxamido)-2-fluorophenyl)-2-((3-methylazetidin-1-yl)methyl)quinoline-6-carboxamide]: 6.63.
On the same count and under the same terms, the same measure for `CC1(C)CN(Cc2ccc3cc(C(=O)Nc4cc(NC(=O)c5ccc6c(c5)OCCO6)ccc4F)ccc3n2)C1` [Example 183, N-(5-(2,3-dihydrobenzo[b][1,4]dioxine-6-carboxamido)-2-fluorophenyl)-2-((3,3-dimethylazetidin-1-yl)methyl)quinoline-6-carboxamide]: 6.88; for `CCN1CCCN(Cc2ccc3cc(C(=O)Nc4cc(NC(=O)c5ccc6c(c5)OCCO6)ccc4F)ccc3n2)CC1` [Example 184, N-(5-(2,3-dihydrobenzo[b][1,4]dioxine-6-carboxamido)-2-fluorophenyl)-2-((4-ethyl-1,4-diazepan-1-yl)methyl)quinoline-6-carboxamide]: 7.22.
The same measure, in the same setting: for `CC(C)N1CCN(Cc2ccc3cc(C(=O)Nc4cc(NC(=O)c5ccc6c(c5)OCCO6)ccc4F)ccc3n2)CC1` [Example 185, N-(5-(2,3-dihydrobenzo[b][1,4]dioxine-6-carboxamido)-2-fluorophenyl)-2-((4-isopropylpiperazin-1-yl)methyl)quinoline-6-carboxamide] the value was 6.86; for `O=C(Nc1ccc(F)c(NC(=O)c2ccc3nc(OCCCN4CCCCC4)ccc3c2)c1)c1ccc2c(c1)OCCO2` [Example 186, N-(5-(2,3-dihydrobenzo[b][1,4]dioxine-6-carboxamido)-2-fluorophenyl)-2-(3-(piperidin-1-yl)propoxy)quinoline-6-carboxamide], 7.89; for `O=C(Nc1ccc(F)c(NC(=O)c2ccc3nc(OCCCN4CCCC4)ccc3c2)c1)c1ccc2c(c1)OCCO2` [Example 187, N-(5-(2,3-dihydrobenzo[b][1,4]dioxine-6-carboxamido)-2-fluorophenyl)-2-(3-(pyrrolidin-1-yl)propoxy)quinoline-6-carboxamide], 8.00.
As to `O=C(Nc1ccc(F)c(NC(=O)c2ccc3nc(OCCN4CCCC4)ccc3c2)c1)c1ccc2c(c1)OCCO2` [Example 188, N-(5-(2,3-dihydrobenzo[b][1,4]dioxine-6-carboxamido)-2-fluorophenyl)-2-(2-(pyrrolidin-1-yl)ethoxy)quinoline-6-carboxamide], the pIC50 is 7.24.
`O=C(Nc1ccc(Cl)c(NC(=O)c2ccc3nc(OCCCN4CCCCC4)ccc3c2)c1)c1ccc2c(c1)OCCO2` [Example 189, N-(2-chloro-5-(2,3-dihydrobenzo[b][1,4]dioxine-6-carboxamido)phenyl)-2-(3-(piperidin-1-yl)propoxy)quinoline-6-carboxamide] had a pIC50 of 7.57.
On the same count and under the same terms, for `CC(C)(C)N1CCN(Cc2ccc3cc(C(=O)Nc4cc(NC(=O)c5ccc6c(c5)OCCO6)ccc4Cl)ccc3n2)CC1` [Example 191, 2-((4-(tert-butyl)piperazin-1-yl)methyl)-N-(2-chloro-5-(2,3 dihydrobenzo[b][1,4]dioxine-6-carboxamido)phenyl)quinoline-6-carboxamide] the value was 6.87.
On to `O=C(Nc1ccc(Cl)c(NC(=O)c2ccc3nc(CN4CCNCC4)ccc3c2)c1)c1ccc2c(c1)OCCO2` [Example 192, N-(2-chloro-5-(2,3-dihydrobenzo[b][1,4]dioxine-6-carboxamido)phenyl)-2-(piperazin-1-ylmethyl)quinoline-6-carboxamide], for which the pIC50 was 6.89.
`O=C(Nc1ccc(Cl)c(NC(=O)c2ccc3nc(CN4CCN(C5CC5)CC4)ccc3c2)c1)c1ccc2c(c1)OCCO2` [Example 194, N-(2-chloro-5-(2,3-dihydrobenzo[b][1,4]dioxine-6-carboxamido)phenyl)-2-((4-cyclopropylpiperazin-1-yl)methyl)quinoline-6-carboxamide]: the pIC50 is 6.67.
The molecule `CN1CCN(Cc2ccc3cc(C(=O)Nc4cc(NC(=O)c5ccc6c(c5)OCCO6)ccc4Cl)ccc3n2)CC1` [Example 195, N-(2-chloro-5-(2,3-dihydrobenzo[b][1,4]dioxine-6-carboxamido)phenyl)-2-((4-methylpiperazin-1-yl)methyl)quinoline-6-carboxamide] gave a pIC50 of 7.18.

The test is the same for the next values; noted with them: SK-OV-3 cells (Examples 169-218).
The molecule “2-((4-(sec-butyl)piperazin-111)methyl)-N-(2-chloro-5-(2,3-dihydrobenzo[b][1,4]dioxine-6-carboxamido)phenyl)quinoline-6-carboxamide [Example 193]” showed a pIC50 of 7.18.
“2-((4-(sec-butyl)piperazin-111)methyl)-N-(5-(2,3-dihydrobenzo[b][1,4]dioxine-6-carboxamido)-2-fluorophenyl)quinoline-6-carboxamide [Example 179]” had a pIC50 of 7.72.
As to “2-((4-(tert-butyl)piperazin-111)methyl)-N-(5-(2,3-dihydrobenzo[b][1,4]dioxine-6-carboxamido)-2-fluorophenyl)quinoline-6-carboxamide [Example 177]”, the pIC50 was 7.15.
